Here are results for 23 compounds from ChEMBL document CHEMBL5226276, “Molecules with versatile biological activities bearing antipyrinyl nucleus as pharmacophore” (Eur J Med Chem, 2020).

In brackets after ≈: the same amount, converted by molar mass.

A short description of data set [1]: Antioxidant activity assessed as DPPH radical scavenging activity incubated for 30 mins under dark condition. Format: functional.
Data set [2] can be described thus: Toxicity in brine shrimp assessed as lethal dose incubated for 24 hrs. Particulars: artemia salina.
A further data set concerns Salmonella typhimurium. Briefly: Antibacterial activity against Salmonella enterica subsp. enterica serovar Typhimurium assessed as inhibition of bacterial growth incubated for 24 hrs by filter paper disc diffusion assay. Format: functional.
The next data set concerns Bacillus cereus. Briefly: Antibacterial activity against Bacillus cereus assessed as inhibition of bacterial growth incubated for 24 hrs by filter paper disc diffusion assay. Format: functional.
Data set [3] concerns Mycobacterium tuberculosis. Briefly: Antimycobacterial activity against Mycobacterium tuberculosis H37Rv assessed as inhibition of bacterial growth at 1.56 to 100 ug/ml incubated for 6 days by alamar blue dye based broth microdilution assay. The data set is classed as functional. Particulars: dose 1.56-100 µg/ml; time 6 day; at 1.56 to 100 µg/mL.
For a further data set, the system named is Macrophomina phaseolina. The experiment in a line: Antimicrobial activity against Macrophomina phaseolina assessed as inhibition of microbial growth incubated for 48 hrs by well dilution assay based UV-Vis spectroscopy. Format: functional.
Another data set deals with Staphylococcus aureus. Briefly: Antimicrobial activity against Staphylococcus aureus assessed as inhibition of microbial growth incubated for 24 hrs by well dilution assay based UV-Vis spectroscopy. Format: functional.
A further data set relates to Aspergillus flavus. The experiment in a line: Antimicrobial activity against Aspergillus flavus assessed as inhibition of microbial growth incubated for 48 hrs by well dilution assay based UV-Vis spectroscopy. Format: functional.
In another data set the test system is Proteus vulgaris. The experiment in a line: Antimicrobial activity against Proteus vulgaris assessed as inhibition of microbial growth incubated for 24 hrs by well dilution assay based UV-Vis spectroscopy. The data set is classed as functional.
A further data set deals with Pseudomonas aeruginosa. The experiment in a line: Antimicrobial activity against Pseudomonas aeruginosa assessed as inhibition of microbial growth incubated for 24 hrs by well dilution assay based UV-Vis spectroscopy. The data set is classed as functional.
The next data set concerns Escherichia coli. Briefly: Antimicrobial activity against Escherichia coli assessed as inhibition of microbial growth incubated for 24 hrs by well dilution assay based UV-Vis spectroscopy. Format: functional.
Another data set concerns Rhizopus stolonifer. Briefly: Antimicrobial activity against Rhizopus stolonifer assessed as inhibition of microbial growth incubated for 48 hrs by well dilution assay based UV-Vis spectroscopy. Format: functional.
The subject of another data set is Candida albicans. The experiment in a line: Antimicrobial activity against Candida albicans assessed as inhibition of microbial growth incubated for 48 hrs by well dilution assay based UV-Vis spectroscopy. Format: functional.
For the next data set, the system named is Klebsiella pneumoniae. The experiment in a line: Antimicrobial activity against Klebsiella pneumoniae assessed as inhibition of microbial growth incubated for 24 hrs by well dilution assay based UV-Vis spectroscopy. Format: functional.
For the next data set, the system named is Aspergillus niger. The experiment in a line: Antimicrobial activity against Aspergillus niger assessed as inhibition of microbial growth incubated for 48 hrs by well dilution assay based UV-Vis spectroscopy. Format: functional.
For data set [4], the system named is Mycobacterium tuberculosis. Briefly: Antimycobacterial activity against Mycobacterium tuberculosis H37Rv assessed as inhibition of bacterial growth incubated for 6 days by alamar blue dye based broth microdilution assay. Format: functional. Particulars: time 6 day.
The nature of data set [5]: Antioxidant activity assessed as DPPH radical scavenging activity by spectrophotometric assay. The data set is classed as functional.
Data set [6] in a line: Antioxidant activity assessed as DPPH radical scavenging activity. Format: functional.
The nature of data set [7]: Antioxidant activity assessed as DPPH radical scavenging activity incubated for 30 mins under dark condition by spectrophotometric assay. Format: functional.

Consider `Cc1c(/N=C/c2ccccc2)c(=O)n(-c2ccccc2)n1C`, for which the IC50 in data set [1] worked out at 31.3 µM.
For `Cc1c(/N=C/c2ccc(Cl)cc2)c(=O)n(-c2ccccc2)n1C`, the LC50 in [2] was 225 ppm.
Still for that read-out and setting: with `Cc1c(/N=C/c2ccc(O)c(O)c2)c(=O)n(-c2ccccc2)n1C` the figure was 481 ppm; with `Cc1c(/N=C/c2ccc(O)cc2O)c(=O)n(-c2ccccc2)n1C`, 581 ppm.
In the case of `COc1ccccc1/C=N/c1c(C)n(C)n(-c2ccccc2)c1=O`, the values for the MIC with Salmonella typhimurium and with Bacillus cereus were 50 µg/mL (≈ 156 µM) and 12.5 µg/mL (≈ 38.9 µM), respectively.
Turning to `COc1cccc(-c2csc(N/N=c3\c(/N=C/c4ccccc4)c(C)n(C)n3-c3ccccc3)n2)c1`, in data set [3], the “inhibition (INH)” value is given as 90%.
The same measure, in the same setting: with `Cc1c(/N=C/c2ccccc2)/c(=N\Nc2nc(-c3ccccc3)cs2)n(-c2ccccc2)n1C` the figure was 90%.
Turning to `Cc1c(/N=C/c2ccco2)/c(=N\c2ccccc2)n(-c2ccccc2)n1C`, the MIC in the data set on Macrophomina phaseolina is 6 µg/mL; with Staphylococcus aureus, 16 µg/mL; in the data set on Aspergillus flavus, 6 µg/mL; in the data set with Proteus vulgaris, 16 µg/mL; with Pseudomonas aeruginosa it was 16 µg/mL; with Escherichia coli, 16 µg/mL. Further, the MIC came to 6 µg/mL in the data set on Rhizopus stolonifer, 6 µg/mL with Candida albicans, 16 µg/mL in the data set with Klebsiella pneumoniae and 6 µg/mL in the data set on Aspergillus niger.
As for `Cc1c(/N=C/c2ccc(Cl)cc2)/c(=N\Nc2nc(-c3ccccc3)cs2)n(-c2ccccc2)n1C`, the “inhibition (INH)” value in data set [3] stood at 90%.
Still for that read-out and setting: to `Cc1c(/N=C/c2ccc(O)cc2)/c(=N\Nc2nc(-c3ccccc3)cs2)n(-c2ccccc2)n1C` belongs 90%; to `Cc1c(/N=C/c2ccccc2)/c(=N\Nc2nc(-c3ccc(O)c(O)c3)cs2)n(-c2ccccc2)n1C`, 90%.
On to `Cc1c(/N=C/c2ccco2)/c(=N\c2ccc([N+](=O)[O-])cc2)n(-c2ccccc2)n1C`, for which the MIC turned out to be 6 µg/mL with Macrophomina phaseolina; 16 µg/mL in the data set on Staphylococcus aureus; 6 µg/mL in the data set with Aspergillus flavus; 16 µg/mL with Proteus vulgaris; 16 µg/mL in the data set on Pseudomonas aeruginosa; 16 µg/mL in the data set with Escherichia coli. In addition, the minimal inhibitory concentration (MIC) in the data set with Rhizopus stolonifer was 6 µg/mL; with Candida albicans it was 6 µg/mL; in the data set with Klebsiella pneumoniae it was 16 µg/mL; with Aspergillus niger it was 6 µg/mL.
In the case of `COc1cc(-c2csc(N/N=c3\c(/N=C/c4ccccc4)c(C)n(C)n3-c3ccccc3)n2)ccc1O`, the “inhibition (INH)” value in data set [3] stood at 90%.
Same read-out and setting: to `Cc1c(/N=C/c2ccccc2)/c(=N\Nc2nc(-c3ccc([N+](=O)[O-])cc3)cs2)n(-c2ccccc2)n1C` belongs 90%.
On the same count and under the same terms, with `Cc1c(/N=C/c2cccc(F)c2)/c(=N\Nc2nc(-c3ccccc3)cs2)n(-c2ccccc2)n1C` the figure was 90%.
For the compound `Cc1c(/N=C/c2cccc(Cl)c2)/c(=N\Nc2nc(-c3ccccc3)cs2)n(-c2ccccc2)n1C`, the “inhibition (INH)” value in [3] worked out at 90%.
The same measure, in the same setting: with `Cc1c(/N=C/c2ccccc2Cl)/c(=N\Nc2nc(-c3ccccc3)cs2)n(-c2ccccc2)n1C` the figure was 90%.
In the case of `Cc1c(/N=C/c2ccccc2)/c(=N\Nc2nc(-c3ccc(O)cc3O)cs2)n(-c2ccccc2)n1C`, the “inhibition (INH)” value in [3] was determined as 90%. For the same compound, in [4], the minimum inhibitory concentration (MIC) is reported as 0.648 10^-3micromol/ml.
On to `COc1ccccc1/N=N/c1ccc(O)c2ncccc12`, for which the IC50 in [5] was 72 µg/mL (≈ 258 µM).
In the case of `Cc1c(/N=C/c2ccccc2)/c(=N\Nc2nc(-c3ccc(N(C)C)cc3)cs2)n(-c2ccccc2)n1C`, the “inhibition (INH)” value in [3] is 90%.
As to `Cc1c(/N=C/c2ccco2)/c(=N\c2ccc(O)cc2)n(-c2ccccc2)n1C`, the MIC in the data set with Macrophomina phaseolina was 6 µg/mL; in the data set on Staphylococcus aureus, 16 µg/mL; in the data set on Aspergillus flavus, 6 µg/mL; with Proteus vulgaris, 16 µg/mL; with Pseudomonas aeruginosa, 16 µg/mL; with Escherichia coli, 16 µg/mL. For the same compound, the MIC is 6 µg/mL in the data set with Rhizopus stolonifer, 6 µg/mL in the data set with Candida albicans, 16 µg/mL in the data set on Klebsiella pneumoniae and 6 µg/mL with Aspergillus niger.
Take `Cc1cc(C(C)(C)C)c(O)c(C(C)(C)C)c1` [BUTYLATED HYDROXYTOLUENE]: the IC50 in data set [6] came to 32 µg/mL (≈ 145 µM); in [7] it was 32 µg/mL (≈ 145 µM); in [5] it was 31 µg/mL (≈ 141 µM).
For the compound `O=C(O)c1cc(O)c(O)c(O)c1` [GALLIC ACID], the LC50 in [2] was determined as 78 ppm.
